In the oligonucleotide strings, read from the 5' end, every base follows the letter of its sugar. An asterisk marks phosphorothioate; unmarked linkages are phosphodiester. Other units and linkages are bracketed, terminal groups are in braces. A string of capitals states the bases alone. e = 2'-O-(2-methoxyethyl) (MOE); [5mC] = 5-methylcytosine; d = 2'-deoxy (DNA)
How the values were obtained:
human Factor 7 mRNA [1] = test: Dose-dependent antisense inhibition of human Factor 7 in HepB3 cells, transfection with lipofectin; format: cell-based; conditions: for percent inhibition of Factor 7 mRNA, relative to untreated control cells: lipofectin, HepB3 cells, 16 hours; for percent inhibition of Factor 7 mRNA, 3.125 nM / percent inhibition of Factor 7 mRNA, 6.25 nM / percent inhibition of Factor 7 mRNA, 12.5 nM / percent inhibition of Factor 7 mRNA, 25.0 nM / percent inhibition of Factor 7 mRNA, 50.0 nM / percent inhibition of Factor 7 mRNA, 100.0 nM: HepB3, lipofectin, ~16 h
Summary of the method: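 HepB3 cells (4,000/well) lipofectin-transfected with antisense oligonucleotide at 3.125 or 6.25 up to 100 nM for ~16 h. Factor 7 mRNA measured by real-time RT-PCR with primer probe set RTS 2927, adjusted to RIBOGREEN total RNA; expressed as percent inhibition versus untreated control cells.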

human Factor 7 mRNA [2] = test: Inhibition of human Factor 7 mRNA by 2-10-2 MOE shortmers in HepB3 cells, electroporation, 1,000 nM; format: cell-based; conditions: electroporation, 1,000 nM oligonucleotide, approximately 24 hours, relative to untreated control cells
Summary of the method: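 14-mer 2-10-2 2′-MOE gapmers, full phosphorothioate, 5-methylcytidines, electroporated at 1,000 nM into HepB3 cells (20,000/well). After ~24 h, mRNA quantified by real-time RT-PCR, normalized to RIBOGREEN total RNA; percent inhibition relative to untreated cells.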

| Substance | percent inhibition of Factor 7 mRNA, relative to untreated control cells (human Factor 7 mRNA [1]; 3.125 nM) | percent inhibition of Factor 7 mRNA, relative to untreated control cells (human Factor 7 mRNA [1]; 12.5 nM) | percent inhibition of Factor 7 mRNA, relative to untreated control cells (human Factor 7 mRNA [1]; 25 nM) | percent inhibition of Factor 7 mRNA, relative to untreated control cells (human Factor 7 mRNA [1]; 50 nM) | percent inhibition of Factor 7 mRNA, relative to untreated control cells (human Factor 7 mRNA [1]; 100 nM) | percent inhibition of Factor 7 mRNA, 3.125 nM (human Factor 7 mRNA [1]; Example 2, 3.125 nM) | percent inhibition of Factor 7 mRNA, 6.25 nM (human Factor 7 mRNA [1]; Example 2) | percent inhibition of Factor 7 mRNA, 12.5 nM (human Factor 7 mRNA [1]; Example 2, 12.5 nM) | percent inhibition of Factor 7 mRNA, 25.0 nM (human Factor 7 mRNA [1]; Example 2) | percent inhibition of Factor 7 mRNA, 50.0 nM (human Factor 7 mRNA [1]; Example 2) | percent inhibition of Factor 7 mRNA, 100.0 nM (human Factor 7 mRNA [1]; Example 2) | percent inhibition of Factor 7 mRNA, 6.25 nM (human Factor 7 mRNA [1]; Example 5) | percent inhibition of Factor 7 mRNA, 12.5 nM (human Factor 7 mRNA [1]; Example 5, 12.5 nM) | percent inhibition of Factor 7 mRNA, 25.0 nM (human Factor 7 mRNA [1]; Example 5) | percent inhibition of Factor 7 mRNA, 50.0 nM (human Factor 7 mRNA [1]; Example 5) | percent inhibition of Factor 7 mRNA, 100.0 nM (human Factor 7 mRNA [1]; Example 5) | percent inhibition of Factor 7 mRNA, relative to untreated control cells (human Factor 7 mRNA [1]) | % inhibition of human Factor 7 mRNA (human Factor 7 mRNA [2]) |
| --- | --- | --- | --- | --- | --- | --- | --- | --- | --- | --- | --- | --- | --- | --- | --- | --- | --- | --- |
| 407935 (antisense eA*eT*eG*e[5mC]*eA*dT*dG*dG*dT*dG*dA*dT*dG*d[5mC]*dT*eT*e[5mC]*eT*eG*eA) [compound 407935] | 19% | 58% | 70% | 85% | 87% | 57% | 76% | 78% | 89% | 90% | 89% | 38% | 53% | 70% | 82% | 86% | 39% |  |
| 407939 (antisense eT*eG*e[5mC]*eA*eG*d[5mC]*d[5mC]*d[5mC]*dG*dG*d[5mC]*dA*d[5mC]*d[5mC]*d[5mC]*eA*eG*e[5mC]*eG*eA) [compound 407939] | 17% | 57% | 75% | 80% | 83% | 62% | 79% | 83% | 91% | 92% | 92% | 37% | 57% | 77% | 84% | 87% | 35% | 81% |

Source: patent US20120214862A1, “MODULATION OF FACTOR 7 EXPRESSION” (ISIS Pharmaceuticals, Inc., priority 2009, published 2012)
